A value given as a limit tells only on which side of the number the result lay.

USP30, sequence (Q70CQ3 whole entry): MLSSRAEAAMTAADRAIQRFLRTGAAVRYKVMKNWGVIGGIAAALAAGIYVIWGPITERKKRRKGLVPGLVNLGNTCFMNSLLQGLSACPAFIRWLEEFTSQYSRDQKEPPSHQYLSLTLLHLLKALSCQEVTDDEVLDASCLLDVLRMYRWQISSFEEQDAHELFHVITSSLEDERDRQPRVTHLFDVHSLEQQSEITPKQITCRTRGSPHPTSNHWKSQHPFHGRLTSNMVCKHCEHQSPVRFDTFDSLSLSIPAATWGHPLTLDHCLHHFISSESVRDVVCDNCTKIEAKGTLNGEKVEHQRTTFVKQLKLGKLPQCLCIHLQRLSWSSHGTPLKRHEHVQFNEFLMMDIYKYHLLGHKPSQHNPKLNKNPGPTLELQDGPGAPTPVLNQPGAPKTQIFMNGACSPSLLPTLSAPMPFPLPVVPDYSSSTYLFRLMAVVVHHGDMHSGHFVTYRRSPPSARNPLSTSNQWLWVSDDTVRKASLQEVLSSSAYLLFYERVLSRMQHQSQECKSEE

The target in this assay is USP30 (Homo sapiens (Human), UniProt Q70CQ3). Kind of assay: In vitro biochemical assay for USP30 enzyme (Ubiquitin-Rhodamine110 cleavage, fluorescence). The settings on record: 20 nM USP30, 15 min pre-incubation, 100 nM Ub rhodamine substrate, 2 hrs at room temperature. The method, then:
In vitro biochemical assay for USP30 enzyme
The in vitro assay for USP30 evaluates the ability of a test compound to inhibit the activity of the enzyme to cleave ubiquitin from a substrate. Ubiquitin-rhodamine 110 is a quenched, fluorescent substrate for USP30. Cleavage of the amide bond between the C-terminal glycine of ubiquitin and rhodamine results in an increase in rhodamine fluorescence at 535 nm (Exc. 485 nm).
Incubation of the substrate in the presence or absence of USP30 was compared to confirm the deubiquitylating activity of USP30. The USP30 enzyme assay was performed by pre-incubating 20 nM of USP30 with varying concentration of a test compound in the assay buffer [PBS (pH 7.4), 1 mM DTT, 0.01% Tween 20, 0.01% BSA, DMSO final concentration is 1%] for 15 mins at room temperature, following which 100 nM of substrate Ub rhodamine was added and incubated at room temperature for 2 hrs and the plate was read for fluorescence intensity at Ex. 485 nm/535 nm in VICTOR X5 plate reader. The percent inhibition of activity of the enzyme is calculated by comparing counts in the presence and absence of compounds.
Test compounds were screened at various concentrations (10-12 tested concentrations) and dose response curves were generated was generated using GraphPad Prism software Version 7 (San Diego, Calif., USA) with non-linear regression curve fit for sigmoidal dose response (variable slope).
The molecule `COc1ccc(C[C@H](NC(=O)c2ccncc2)C(=O)Nc2ccc(S(=O)(=O)NC(C)(C)C)cc2)cc1` [Compound 19ab, (S)-N-(1-((4-(N-(tert-butyl)sulfamoyl)phenyl)amino)-3-(4-methoxyphenyl)-1-oxopropan-2-yl)isonicotinamide] registered an IC50 of 2400 nM.
In turn, `CC(C)(C)NS(=O)(=O)c1ccc(NC(=O)[C@H](Cc2ccccc2)NC(=O)C2CCCC2)cc1` [Compound 10c, (S)-N-(1-((4-(N-(tert-butyl)sulfamoyl)phenyl)amino)-1-oxo-3-phenylpropan-2-yl)cyclopentanecarboxamide] showed an IC50 of 71 nM.
As for `CC(C)(C)NS(=O)(=O)c1cccc2c(NC(=O)[C@H](Cc3ccccc3)NC(=O)c3nccs3)cccc12` [Compound 4q, (S)-N-(1-((5-(N-(tert-butyl)sulfamoyl)naphthalen-1-yl)amino)-1-oxo-3-phenylpropan-2-yl)thiazole-2-carboxamide], the figure is 180 nM; as for `CC(C)(C)NS(=O)(=O)c1cccc2c(NC(=O)[C@H](Cc3ccccc3)NC(=O)C3CCCC3)cccc12` [Compound 4l, (S)-N-(1-((5-(N-(tert-butyl)sulfamoyl)naphthalen-1-yl)amino)-1-oxo-3-phenylpropan-2-yl)cyclopentanecarboxamide], 366 nM; as for `CC(C)(C)NS(=O)(=O)c1cccc2c(NC(=O)[C@H](Cc3ccc(F)cc3)NC(=O)c3ccccc3)cccc12` [Compound 7e, (S)-N-(1-((5-(N-(tert-butyl)sulfamoyl)naphthalen-1-yl)amino)-3-(4-fluorophenyl)-1-oxopropan-2-yl)benzamide], 153 nM.
As for `CC(C)(C)NS(=O)(=O)c1ccc(NC(=O)[C@H](CC2CC2)NC(=O)C2CCCCC2)cc1` [Compound 19c, (S)-N-(1-((4-(N-(tert-butyl)sulfamoyl)phenyl)amino)-3-cyclopropyl-1-oxopropan-2-yl)cyclohexanecarboxamide], the figure is 810 nM; as for `CC(C)NS(=O)(=O)c1ccc(NC(=O)[C@H](Cc2ccccc2)NC(=O)C2CCCCC2)cc1` [Compound 19h, (S)-N-(1-((4-(N-isopropylsulfamoyl)phenyl)amino)-1-oxo-3-phenylpropan-2-yl)cyclohexanecarboxamide], 179 nM; as for `CC(C)(C)NS(=O)(=O)c1ccc(NC(=O)[C@H](Cc2ccccc2)NC(=O)c2ccccn2)cc1` [Compound 10h, (S)-N-(1-((4-(N-(tert-butyl)sulfamoyl)phenyl)amino)-1-oxo-3-phenylpropan-2-yl)picolinamide], 250 nM.
Under `CC(C)(C)NS(=O)(=O)c1ccc(NC(=O)[C@H](CC2CCCCC2)NC(=O)c2ccccc2)cc1` [Compound 14a, (S)-N-(1-((4-(N-(tert-butyl)sulfamoyl)phenyl)amino)-3-cyclohexyl-1-oxopropan-2-yl)benzamide] stands 225 nM; under `Cc1ccccc1C[C@H](NC(=O)c1ccccc1)C(=O)Nc1cccc2c(S(=O)(=O)NC(C)(C)C)cccc12` [Compound 7l, (S)-N-(1-((5-(N-(tert-butyl)sulfamoyl)naphthalen-1-yl)amino)-1-oxo-3-(o-tolyl)propan-2-yl)benzamide], over 10000 nM.
Consider `CC(C)(C)NS(=O)(=O)c1ccc(NC(=O)[C@H](Cc2ccccc2)NC(=O)c2ccc(C(=O)O)cc2)cc1` [Compound 10f, (S)-4-((1-((4-(N-(tert-butyl)sulfamoyl)phenyl)amino)-1-oxo-3-phenylpropan-2-yl)carbamoyl)benzoic acid], for which the IC50 is over 10000 nM.
Under `CC(C)(C)NS(=O)(=O)c1cccc2c(NC(=O)[C@H](Cc3ccccc3)NC(=O)C3CCCO3)cccc12` (stereo partly drawn) [Compound 4u, N-((S)-1-((5-(N-(tert-butyl)sulfamoyl)naphthalen-1-yl)amino)-1-oxo-3-phenylpropan-2-yl)tetrahydrofuran-2-carboxamide] stands over 10000 nM; under `COC(=O)c1ccc(C(=O)N[C@@H](Cc2ccccc2)C(=O)Nc2ccc(S(=O)(=O)NC(C)(C)C)cc2)cc1` [Compound 10g, methyl (S)-4-((1-((4-(N-(tert-butyl)sulfamoyl)phenyl)amino)-1-oxo-3-phenylpropan-2-yl)carbamoyl)benzoate], over 10000 nM.
As for `Cc1ccc(C(=O)N[C@@H](Cc2ccccc2)C(=O)Nc2cccc3c(S(=O)(=O)NC(C)(C)C)cccc23)cc1` [Compound 4i, (S)-N-(1-((5-(N-(tert-butyl)sulfamoyl)naphthalen-1-yl)amino)-1-oxo-3-phenylpropan-2-yl)-4-methylbenzamide], the figure is 2500 nM.
As for `CC(C)(C)NS(=O)(=O)c1cccc2c(NC(=O)[C@H](Cc3ccccc3)NC(=O)c3cccs3)cccc12` [Compound 4h, (S)-N-(1-((5-(N-(tert-butyl)sulfamoyl)naphthalen-1-yl)amino)-1-oxo-3-phenylpropan-2-yl)thiophene-2-carboxamide], the figure is 1800 nM; as for `CC(C)(C)NS(=O)(=O)c1cccc2c(NC(=O)[C@H](Cc3ccccc3)NC(=O)c3ccc(F)cc3)cccc12` [Compound 4j, (S)-N-(1-((5-(N-(tert-butyl)sulfamoyl)naphthalen-1-yl)amino)-1-oxo-3-phenylpropan-2-yl)-4-fluorobenzamide], 49 nM; as for `CC(C)(C)NS(=O)(=O)c1cccc2c(NC(=O)[C@H](Cc3ccccc3)NC(=O)c3ccco3)cccc12` [Compound 4z, (S)-N-(1-((5-(N-(tert-butyl)sulfamoyl)naphthalen-1-yl)amino)-1-oxo-3-phenylpropan-2-yl)furan-2-carboxamide], over 10000 nM.
`CC(C)(C)NS(=O)(=O)c1cccc2c(NC(=O)[C@H](Cc3ccccc3)NC(=O)C3CCOCC3)cccc12` [Compound 4k, (S)-N-(1-((5-(N-(tert-butyl)sulfamoyl)naphthalen-1-yl)amino)-1-oxo-3-phenylpropan-2-yl)tetrahydro-2H-pyran-4-carboxamide] came in with an IC50 of over 10000 nM.
As for `CC(C)(C)NS(=O)(=O)c1ccc(NC(=O)[C@H](Cc2cccc(C#N)c2)NC(=O)C2CCCCC2)cc1` [Compound 19ad, (S)-N-(1-((4-(N-(tert-butyl)sulfamoyl)phenyl)amino)-3-(3-cyanophenyl)-1-oxopropan-2-yl)cyclohexanecarboxamide], the figure is 41 nM; as for `CC(C)(C)NS(=O)(=O)c1ccc(NC(=O)[C@H](CC2CCCCC2)NC(=O)c2ccccc2F)cc1` [Compound 14f, (S)-N-(1-((4-(N-(tert-butyl)sulfamoyl)phenyl)amino)-3-cyclohexyl-1-oxopropan-2-yl)-2-fluorobenzamide], 461 nM; as for `CC(C)(C)NS(=O)(=O)c1cccc2c(NC(=O)[C@H](Cc3ccccc3)NC(=O)Cc3ccccc3)cccc12` [Compound 4e, (S)-N-(5-(N-(tert-butyl)sulfamoyl)naphthalen-1-yl)-3-phenyl-2-(2-phenylacetamido)propanamide], over 10000 nM.
`CC(C)(C)NS(=O)(=O)c1ccc(NC(=O)[C@H](Cc2cccnc2)NC(=O)c2ccc(F)cc2)cc1` [Compound 19n, (S)-N-(1-((4-(N-(tert-butyl)sulfamoyl)phenyl)amino)-1-oxo-3-(pyridin-3-yl)propan-2-yl)-4-fluorobenzamide] showed an IC50 of 16 nM.
Molecule `CC(C)(C)NS(=O)(=O)c1ccc(NC(=O)[C@H](Cc2ccccn2)NC(=O)c2ccc(F)cc2)cc1` [Compound 19o, (S)-N-(1-((4-(N-(tert-butyl)sulfamoyl)phenyl)amino)-1-oxo-3-(pyridin-2-yl)propan-2-yl)-4-fluorobenzamide] came in with an IC50 of 48 nM.
Under `CC(C)(C)NS(=O)(=O)c1cccc2c(NC(=O)[C@H](Cc3cnc[nH]3)NC(=O)c3ccccc3)cccc12` [Compound 7i, (S)-N-(1-((5-(N-(tert-butyl)sulfamoyl)naphthalen-1-yl)amino)-3-(1H-imidazol-5-yl)-1-oxopropan-2-yl)benzamide] stands over 10000 nM; under `COc1ccc(C[C@H](NC(=O)c2ccccc2)C(=O)Nc2cccc3c(S(=O)(=O)NC(C)(C)C)cccc23)cc1` [Compound 7f, (S)-N-(1-((5-(N-(tert-butyl)sulfamoyl)naphthalen-1-yl)amino)-3-(4-methoxyphenyl)-1-oxopropan-2-yl)benzamide], 89 nM.
Under `CC(C)(C)NS(=O)(=O)c1ccc(NC(=O)[C@H](Cc2ccc(F)cc2)NC(=O)c2ccccc2)cc1` [Compound 19b, (S)-N-(1-((4-(N-(tert-butyl)sulfamoyl)phenyl)amino)-3-(4-fluorophenyl)-1-oxopropan-2-yl)benzamide] stands 133 nM; under `CC(C)(C)NS(=O)(=O)c1ccc(NC(=O)[C@H](CC2CCCCC2)NC(=O)C2CCCC2)cc1` [Compound 14e, (S)-N-(1-((4-(N-(tert-butyl)sulfamoyl)phenyl)amino)-3-cyclohexyl-1-oxopropan-2-yl)cyclopentanecarboxamide], 120 nM; under `C[C@@H](O)[C@H](NC(=O)C1CCCCC1)C(=O)Nc1ccc(S(=O)(=O)NC(C)(C)C)cc1` [Compound 19i, N-((2S,3R)-1-((4-(N-(tert-butyl)sulfamoyl)phenyl)amino)-3-hydroxy-1-oxobutan-2-yl)cyclohexanecarboxamide], over 10000 nM.

Broadly, the IC50 is the concentration needed to halve the response being measured. Lower therefore signals greater potency.

(Values after patent publication US10968172B2, “USP30 inhibitors” (Mitobridge, Inc., priority 2017, dated 2021).)
